Assay results from patent USRE40594E1, “Inhibitors of the bitter taste response” (Mount Sinai School of Medicine of New York University, priority 1998, dated 2008).
Entries after “also recorded” stand apart in the source; their conditions may differ.

What was measured:
C57BL/6J mice = experiment: Forty-eight-hour two-bottle preference test (behavioral assay); type: in vivo
Protocol: Behavioral Assays. Multiple sets of male C57BL/6J mice from the Jackson Laboratory were tested. Each set (n=10) was tested with tastant±AMP or GMP. Between tests, mice were provided with acidified water (pH 4.5) for about 2 wk. Tested mice ranged in age from 8 to 20 wk. Mice were individually housed, provided with food ad libitum (Pico Lab Mouse Diet 20 no. 5058; PMI Feeds, St. Louis, Mo.) and presented with distilled water in two sipper bottles for 48 h before testing. During each 48-h test period, a given concentration of tastant was provided in one sipper bottle, whereas the other had distilled water. After 24 h, volumes consumed were recorded, the bottles refilled, and positions reversed (to control for positional cues). Tastants were presented in ascending concentration. Preference ratios were calculated as the fraction of tastant consumed as a percentage of the total volume of liquid consumed. Mean preference ratios and Student's t tests were calculated from total collected data.

[1] = tested on: glossopharyngeal nerve responses of C57BL/6J mice; experiment: Glossopharyngeal nerve recording on lingual stimulation with tastants; type: in vivo
Protocol: Nerve Recording. Glossopharyngeal nerve responses were recorded from male C57BL/6J mice as previously described (Ninomiya, Y., et al., 1997, Am. J. Physiol. (London) 272:R1002-RI006). Each mouse was anesthetized with intraperitoneal injection of sodium pentobarbital (40-50 mg/kg) and maintained at a surgical level of anesthesis with supplemental injections of the drug. The trachea was cannulated, and the mouse was then fixed in the supine position with a head holder to allow dissection of the glossopharyngeal nerve. The hypoglossal nerve was transected bilaterally to prevent inadvertent tongue movements. The right glossopharyngeal nerve was exposed by removal of the digastric muscle and posterior horn of the hyoid bone. The glossopharyngeal nerve was then dissected free from underlying tissues and cut near its entrance to the posterior foramen lacerum. The entire nerve was placed on a silver wire electrode for whole nerve recording. An indifferent electrode was positioned nearby in the wound. […] Whole nerve responses were integrated by using an RMS-DC converter (Hendrick, Tallahassee, Fla.) with a time constant of 0.5 s. For chemical stimulation of the circumvallate and foliate papillae, an incision was made on each side of the animal's face from the comer of the mouth to just above the angle of the jaw, the papillae were exposed, and their trenches opened via slight tension applied through a small suture sewn in the tip of the tongue. Tastant solutions were delivered to the tongue by gravity flow, and flowed over the tongue for a controlled period. The stability of each preparation was monitored by the periodic application of 0.1 M NH4Cl. A recording was considered to be stable when the 0.1 M NH4Cl response magnitudes at the beginning and end of each stimulation series deviated by no more than 15%. Only responses from stable recordings were used in the data analysis. In the analysis of whole nerve responses, the magnitudes of the integrated response at 20, 25, 30, 35. and 40 s after stimulus onset were measured and averaged to generate tonic responses: the tonic response represents the sustained nerve response to continuous tastant stimulation of taste receptor cells. The relative tonic response for each stimulus was obtained by normalization to the response from 0.1 M NH4Cl (the tonic response of NH4Cl was defined as 1.0). Student's t test was used for statistical analysis.

rhodopsin = biological target: T1, rhodopsin (Bos taurus, UniProt P02699); experiment: Rhodopsin-mediated activation of transducin (trypsin sensitivity assay, receptor specificity control); type: biochemical, bovine; details: 0.001 mM rhodopsin; AMP 0.25, 0.5, 1.25, 2.5, 5.0 mM; FIG. 1D
T1 construct: Rhodopsin was purified in the light as 6 M urea-washed bovine rod outer segments; from tissue; host or cells: bovine rod outer segments (6 M urea-washed)
T1 sequence (P02699 whole entry): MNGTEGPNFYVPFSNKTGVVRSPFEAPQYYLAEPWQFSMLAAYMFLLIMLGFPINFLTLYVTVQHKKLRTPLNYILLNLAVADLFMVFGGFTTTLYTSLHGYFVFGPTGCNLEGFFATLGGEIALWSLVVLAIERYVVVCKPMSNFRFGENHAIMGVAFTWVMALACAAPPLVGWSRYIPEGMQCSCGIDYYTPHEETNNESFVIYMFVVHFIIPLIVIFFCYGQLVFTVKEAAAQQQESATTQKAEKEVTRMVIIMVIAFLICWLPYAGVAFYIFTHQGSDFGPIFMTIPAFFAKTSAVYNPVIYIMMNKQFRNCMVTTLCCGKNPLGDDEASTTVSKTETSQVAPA
Protocol: G Protein Activation Assays. Bovine (Bos primigenius) tongues were collected fresh from a local slaughterhouse and transported on ice to the laboratory. Circumvallate papillae were hand dissected, frozen in liquid nitrogen, and stored at −80° C. until use. The collected taste tissues were homogenized, particulates removed by centrifugation, and enriched taste cell membranes collected as described (Ming, D., et al., 1998, Proc. Natl. Acad. Sci. U.S.A. 95:8933-8938). The pelleted membranes were rinsed twice, resuspended in homogenization buffer lacking protease inhibitors, and further homogenized by 20 passages through a 25-gauge needle. Aliquots were either flash frozen or stored on ice until use. The concentration of protein in the membrane preparations was determined by the Peterson modification of the micro-Lowry method (Peterson, G. L., 1977, Anal. Biochem. 83:346-356). Activation of transducin was based on the published trypsin sensitivity procedure (Ming, D., et al., 1998, Proc. Natl. Acad. Sci. U.S.A. 95:8933-8938, Neer, E. J., et al., 1994, Methods Enzymol. 237:226-239). After the trypsin digestion, samples were diluted with Laemmli buffer (Laemmli. U. K., 1970, Nature (London) 227:680-685) and separated by SDS/PAGE by using a 4-20% gel and Tris-glycine buffer. […]

[2] = DEN, QUI and other bitter compounds

SMILES: Nc1ncnc2c1ncn2[C@@H]1O[C@H](COP(=O)(O)O)[C@@H](O)[C@H]1O [AMP, adenosine 5′ monophosphate]
- shift of DEN dose-aversiveness curve (C57BL/6J mice; AMP 0.1, 1.0, 5.0 mM, FIG. 3B): shifted the dose-aversiveness curve to the right
- concentration at which AMP alone elicits behavioral responses (C57BL/6J mice; AMP alone, two-bottle preference, FIG. 3B): ≥ 0.5 mM
- inhibitory effect on aversive responses at highest concentration of DEN (C57BL/6J mice; DEN 5.0 mM, FIGS. 3A-B): eliminated; also recorded: overcame
- inhibition of aversive responses to DEN (C57BL/6J mice; DEN 0.05, 0.10, 0.50, 1.0 mM, inhibitor 0.1 and 1.0 mM, n=10, P<0.001, FIG. 3A): inhibited
- inhibition of behavioral (aversive) responses to bitter compounds, summary statement (C57BL/6J mice; [2]): blocks
- effect on behavioral responses to HCl (C57BL/6J mice; HCl 0.01 and 0.10 mM, 0.1 mM AMP, FIG. 3E): did not alter; also recorded: did not affect
- effect on behavioral responses to NaCl (C57BL/6J mice; NaCl 0.1 and 0.3 M, 0.1 mM AMP, FIG. 3E): did not alter; also recorded: did not affect
- inhibitory effect on aversive responses at highest concentration of QUI (C57BL/6J mice; QUI 1.0 mM, FIGS. 3C-D): eliminated; also recorded: overcame
- inhibition of aversive responses to QUI (C57BL/6J mice; QUI 0.05, 0.10, 0.50 mM, inhibitor 0.1 and 0.5 mM, n=10, P<0.001, FIG. 3C): inhibited
- effect on behavioral responses to SC45647 (C57BL/6J mice; SC45647 0.01 and 0.10 mM, 0.1 mM AMP, FIG. 3E): did not alter; also recorded: did not affect; also recorded: did not diminish
- inhibition of aversive responses to sparteine (SPA) (C57BL/6J mice; SPA 0.05 and 0.10 mM, 0.1 mM AMP, P<0.001, FIG. 3E): inhibited
- inhibition of aversive responses to (−)-epicatechin (C57BL/6J mice; epicatechin 0.05 and 0.10 mM, 0.1 mM AMP, P<0.01, FIG. 3E): inhibited
- shift of QUI dose-aversiveness curve (C57BL/6J mice; increasing concentrations of AMP, FIG. 3D): shifted the dose-aversiveness curve to the right
- effect on behavioral responses to sucrose (C57BL/6J mice; sucrose 5.0 and 150 mM, 0.1 mM AMP, FIG. 3E): did not alter; also recorded: did not affect
- inhibition of glossopharyngeal nerve responses to atropine ([1]; 1.0 mM ATR, inhibitor 0.1 mM, FIGS. 4A-C): significantly inhibited
- inhibition of glossopharyngeal nerve responses to sparteine ([1]; 1.0 mM SPA, inhibitor 0.1 mM, FIGS. 4A-C, 4I (P<0.001)): inhibits; also recorded: significantly inhibited
- inhibition of glossopharyngeal nerve responses to strychnine ([1]; 1.0 mM STR, inhibitor 0.1 mM, FIGS. 4A-C): significantly inhibited
- effect on glossopharyngeal nerve responses to SC45647 ([1]; 3.0 mM SC45647, 0.1 mM AMP, P<0.01, FIG. 4I): inhibits; also recorded: inhibited slightly; also recorded: did diminish
- inhibition of glossopharyngeal nerve responses to DEN ([1]; 5.0 mM DEN, inhibitor 0.1 mM, FIGS. 4A-C): significantly inhibited
- effect on glossopharyngeal nerve responses to HCl ([1]; 5.0 mM HCl, 0.1 mM AMP, FIG. 4I): did not affect
- effect on glossopharyngeal nerve responses to NH4Cl ([1]; 0.1 M NH4Cl, 0.1 mM AMP): did not affect
- effect on glossopharyngeal nerve responses to NaCl ([1]; 0.1 M NaCl, 0.1 mM AMP, FIG. 4I): did not affect
- effect on glossopharyngeal nerve responses to sucrose ([1]; 0.5 M sucrose, 0.1 mM AMP, FIG. 4I): did not affect
- inhibition of relative tonic glossopharyngeal responses to rising DEN concentrations ([1]; DEN 0.1, 0.5, 1.0, 5.0, 10.0 mM, AMP 0.1 and 1.0 mM, n=5 to 7, FIG. 4G): significantly inhibited
- inhibition of gustatory (glossopharyngeal) nerve responses to bitter compounds, summary statement [1, 2]: diminishes
- inhibition of relative tonic glossopharyngeal responses to rising QUI concentrations ([1]; QUI 0.1, 0.3, 1.0 mM, AMP 0.1 and 1.0 mM, n=6 to 8, FIG. 4H): significantly inhibited; also recorded: reached a plateau
- inhibition of glossopharyngeal nerve responses to QUI ([1]; QUI 0.1 and 1.0 mM, inhibitor 0.1 mM, FIGS. 4D-F): significantly inhibited
- inhibition of activation of transducin by rhodopsin (rhodopsin): does not inhibit; also recorded: did not inhibit
